Values of other authors, collected in patent US20050250805A1, “Pharmaceutical ointment formulations” (Glenmark Pharmaceuticals Limited, priority 2004, published 2005).

How the values were obtained:
human subjects = details: 50 human subjects, total of 15 applications; according to the manufacturer's brochure

Compound: CN1CCCC1=O [Pharmasolve, N-methyl-2-pyrrolidone]
- Primary dermal irritation / sensitization in repeated insult patch test (human subjects): neither a primary dermal irritant nor a sensitizer
- PII (skin irritation; practically nonirritating to rabbit skin) (rabbit skin): 0.5
